Measured values published in ChEMBL document CHEMBL5653631, “A Potent and Selective ULK1 Inhibitor Suppresses Autophagy and Sensitizes Cancer Cells to Nutrient Stress” (iScience, 2018).
Each block holds one compound with its values, some of them ahead of it.

Columns and labels:
[1] = biological target: T1, Mitogen-activated protein kinase kinase kinase 7 (Homo sapiens) (UniProt O43318); assay: Inhibition of human recombinant TAK1 at 500 nM in presence of ATP by radiometric assay relative to control
T1 sequence (whole entry): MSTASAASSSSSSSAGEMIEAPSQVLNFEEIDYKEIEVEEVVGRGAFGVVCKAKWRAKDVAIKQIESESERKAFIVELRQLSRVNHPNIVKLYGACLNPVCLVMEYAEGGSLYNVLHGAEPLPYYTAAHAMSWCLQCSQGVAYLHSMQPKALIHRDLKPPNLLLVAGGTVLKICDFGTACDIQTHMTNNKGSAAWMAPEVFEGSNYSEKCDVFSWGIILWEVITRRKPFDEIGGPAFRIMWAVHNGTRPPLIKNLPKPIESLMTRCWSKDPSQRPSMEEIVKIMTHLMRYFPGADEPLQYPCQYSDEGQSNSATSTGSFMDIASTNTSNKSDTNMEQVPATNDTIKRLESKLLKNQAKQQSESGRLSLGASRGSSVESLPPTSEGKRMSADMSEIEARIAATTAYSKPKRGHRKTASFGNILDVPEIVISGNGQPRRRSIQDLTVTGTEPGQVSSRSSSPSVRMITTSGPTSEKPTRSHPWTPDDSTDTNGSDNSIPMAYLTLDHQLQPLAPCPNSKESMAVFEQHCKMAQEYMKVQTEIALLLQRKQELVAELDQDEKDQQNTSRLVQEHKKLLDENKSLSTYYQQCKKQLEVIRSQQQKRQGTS

[2] = biological target: T2, MAP/microtubule affinity-regulating kinase 4 (Homo sapiens) (UniProt Q96L34); assay: Inhibition of human recombinant MARK4 at 500 nM related to control ULK1
T2 sequence (whole entry): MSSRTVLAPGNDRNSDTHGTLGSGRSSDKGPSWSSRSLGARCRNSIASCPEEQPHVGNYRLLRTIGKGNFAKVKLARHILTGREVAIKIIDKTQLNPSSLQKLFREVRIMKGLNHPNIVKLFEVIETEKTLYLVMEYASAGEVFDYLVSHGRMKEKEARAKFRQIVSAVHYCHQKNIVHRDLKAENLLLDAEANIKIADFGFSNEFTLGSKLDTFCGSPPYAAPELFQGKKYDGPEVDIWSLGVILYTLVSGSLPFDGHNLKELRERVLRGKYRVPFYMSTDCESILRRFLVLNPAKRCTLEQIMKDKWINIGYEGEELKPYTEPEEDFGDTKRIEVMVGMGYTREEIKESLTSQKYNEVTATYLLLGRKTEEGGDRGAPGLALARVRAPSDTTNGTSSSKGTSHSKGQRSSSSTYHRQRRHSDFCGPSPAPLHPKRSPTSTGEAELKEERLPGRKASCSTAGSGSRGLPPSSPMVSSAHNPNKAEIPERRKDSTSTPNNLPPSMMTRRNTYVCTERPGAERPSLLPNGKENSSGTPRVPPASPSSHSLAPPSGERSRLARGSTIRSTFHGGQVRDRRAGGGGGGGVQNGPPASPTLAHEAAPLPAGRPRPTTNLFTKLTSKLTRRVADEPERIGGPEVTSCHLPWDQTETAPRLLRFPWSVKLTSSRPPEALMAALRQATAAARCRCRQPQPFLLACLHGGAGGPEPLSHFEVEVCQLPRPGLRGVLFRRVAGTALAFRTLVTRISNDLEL

[3] = biological target: T3, G protein-coupled receptor kinase 3 (Homo sapiens) (UniProt P35626); assay: Inhibition of human recombinant BARK2 at 15 nM related to control ULK1
T3 sequence (whole entry): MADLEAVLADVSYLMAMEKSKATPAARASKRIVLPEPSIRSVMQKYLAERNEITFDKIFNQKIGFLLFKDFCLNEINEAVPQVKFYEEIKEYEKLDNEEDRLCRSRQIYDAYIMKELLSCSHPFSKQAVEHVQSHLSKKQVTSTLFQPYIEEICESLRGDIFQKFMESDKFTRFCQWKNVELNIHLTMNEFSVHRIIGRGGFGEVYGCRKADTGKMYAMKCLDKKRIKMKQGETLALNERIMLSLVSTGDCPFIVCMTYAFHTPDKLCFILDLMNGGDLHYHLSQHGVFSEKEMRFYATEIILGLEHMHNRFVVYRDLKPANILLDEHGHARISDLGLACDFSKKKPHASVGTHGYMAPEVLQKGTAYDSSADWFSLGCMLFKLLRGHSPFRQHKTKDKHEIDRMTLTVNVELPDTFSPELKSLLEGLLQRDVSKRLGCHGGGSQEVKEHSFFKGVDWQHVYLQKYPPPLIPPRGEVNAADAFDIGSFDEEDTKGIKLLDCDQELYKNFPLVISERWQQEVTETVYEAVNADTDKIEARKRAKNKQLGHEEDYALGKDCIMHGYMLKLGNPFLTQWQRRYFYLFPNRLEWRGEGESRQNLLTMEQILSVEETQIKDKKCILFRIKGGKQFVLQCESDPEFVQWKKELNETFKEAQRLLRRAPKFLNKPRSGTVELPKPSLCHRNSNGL

[4] = biological target: T4, Serine/threonine-protein kinase Sgk3 (Homo sapiens) (UniProt Q96BR1); assay: Inhibition of human recombinant SGK3 at 15 nM related to control ULK1
T4 sequence (whole entry): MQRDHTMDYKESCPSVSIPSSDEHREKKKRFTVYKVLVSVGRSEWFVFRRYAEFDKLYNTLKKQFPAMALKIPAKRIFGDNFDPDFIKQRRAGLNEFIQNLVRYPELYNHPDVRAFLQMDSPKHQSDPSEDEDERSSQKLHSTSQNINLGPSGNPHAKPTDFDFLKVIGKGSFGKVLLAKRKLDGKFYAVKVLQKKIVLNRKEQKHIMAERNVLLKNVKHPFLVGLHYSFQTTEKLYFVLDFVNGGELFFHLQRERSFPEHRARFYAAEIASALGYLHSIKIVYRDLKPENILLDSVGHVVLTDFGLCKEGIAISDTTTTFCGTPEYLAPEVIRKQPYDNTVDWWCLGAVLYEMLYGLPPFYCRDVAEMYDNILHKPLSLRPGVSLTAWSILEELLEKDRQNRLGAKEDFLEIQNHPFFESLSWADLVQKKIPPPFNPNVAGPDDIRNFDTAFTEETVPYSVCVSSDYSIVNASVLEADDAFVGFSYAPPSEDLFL

[5] = biological target: Macrophage-stimulating protein receptor (Homo sapiens) (UniProt Q04912); assay: Inhibition of human recombinant RON at 40 nM in presence of ATP by radiometric assay relative to control
[6] = biological target: [Pyruvate dehydrogenase (acetyl-transferring)] kinase isozyme 4, mitochondrial (Homo sapiens) (UniProt Q16654); assay: Inhibition of human recombinant PDHK4 at 40 nM related to control ULK1
[Pyruvate dehydrogenase (acetyl-transferring)] kinase isozyme 4, mitochondrial (Homo sapiens), sequence (Q16654 whole entry, looked up): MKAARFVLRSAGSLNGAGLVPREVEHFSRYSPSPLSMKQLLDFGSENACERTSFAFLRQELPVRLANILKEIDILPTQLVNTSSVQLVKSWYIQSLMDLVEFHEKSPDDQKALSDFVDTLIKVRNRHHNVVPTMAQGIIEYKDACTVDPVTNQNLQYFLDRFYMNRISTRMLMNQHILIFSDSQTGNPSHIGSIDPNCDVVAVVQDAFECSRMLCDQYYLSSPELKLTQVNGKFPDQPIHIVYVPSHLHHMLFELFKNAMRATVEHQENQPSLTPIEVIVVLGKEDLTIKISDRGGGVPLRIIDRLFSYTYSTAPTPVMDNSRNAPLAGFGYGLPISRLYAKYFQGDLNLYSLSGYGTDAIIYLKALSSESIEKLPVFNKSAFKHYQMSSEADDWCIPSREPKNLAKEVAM

Macrophage-stimulating protein receptor (Homo sapiens), sequence (Q04912 25-304 limits assumed): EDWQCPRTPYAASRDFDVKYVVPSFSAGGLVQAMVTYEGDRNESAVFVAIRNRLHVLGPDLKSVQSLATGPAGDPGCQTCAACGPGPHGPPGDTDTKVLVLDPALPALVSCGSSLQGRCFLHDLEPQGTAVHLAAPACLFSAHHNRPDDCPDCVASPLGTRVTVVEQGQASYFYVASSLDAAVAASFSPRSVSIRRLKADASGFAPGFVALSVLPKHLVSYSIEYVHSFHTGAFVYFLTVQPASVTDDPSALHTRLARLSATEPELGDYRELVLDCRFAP
Macrophage-stimulating protein receptor (Homo sapiens), sequence (Q04912 310-1400 limits assumed): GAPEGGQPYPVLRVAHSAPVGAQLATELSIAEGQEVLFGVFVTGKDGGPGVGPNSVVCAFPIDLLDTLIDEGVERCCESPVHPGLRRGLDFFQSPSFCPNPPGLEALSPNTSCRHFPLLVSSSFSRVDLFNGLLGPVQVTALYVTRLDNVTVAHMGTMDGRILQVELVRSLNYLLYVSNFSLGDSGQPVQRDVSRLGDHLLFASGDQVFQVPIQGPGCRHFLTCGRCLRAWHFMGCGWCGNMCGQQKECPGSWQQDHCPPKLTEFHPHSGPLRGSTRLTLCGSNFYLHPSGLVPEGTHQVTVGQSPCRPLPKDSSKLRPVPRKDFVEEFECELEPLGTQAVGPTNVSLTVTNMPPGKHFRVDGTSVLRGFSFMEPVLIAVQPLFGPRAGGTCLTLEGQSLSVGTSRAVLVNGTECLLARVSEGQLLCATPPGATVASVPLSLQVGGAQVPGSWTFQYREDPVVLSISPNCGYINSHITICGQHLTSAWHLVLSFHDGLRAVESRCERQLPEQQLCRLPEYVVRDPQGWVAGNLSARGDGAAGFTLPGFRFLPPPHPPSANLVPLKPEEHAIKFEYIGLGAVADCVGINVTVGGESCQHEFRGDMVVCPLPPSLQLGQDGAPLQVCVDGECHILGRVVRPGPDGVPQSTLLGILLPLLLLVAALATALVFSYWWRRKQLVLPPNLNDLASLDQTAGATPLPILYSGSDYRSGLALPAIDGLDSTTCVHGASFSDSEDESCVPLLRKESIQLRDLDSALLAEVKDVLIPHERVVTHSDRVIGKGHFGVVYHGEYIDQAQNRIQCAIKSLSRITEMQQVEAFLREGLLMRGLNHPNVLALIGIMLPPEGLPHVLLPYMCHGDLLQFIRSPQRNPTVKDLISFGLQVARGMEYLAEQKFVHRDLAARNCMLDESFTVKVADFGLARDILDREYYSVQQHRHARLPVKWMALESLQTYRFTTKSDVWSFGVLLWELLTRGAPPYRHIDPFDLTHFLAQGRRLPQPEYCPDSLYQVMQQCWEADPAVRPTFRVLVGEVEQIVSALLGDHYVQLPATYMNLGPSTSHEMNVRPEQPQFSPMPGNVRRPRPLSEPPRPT

inhibition [1]: 2%
fold change (FC) [2]: 0.78
Structure (SMILES): CNC(=O)c1ccccc1Oc1nc(Nc2cc(OC)c(OC)c(OC)c2)ncc1Br

fold change (FC) [3]: 0
fold change (FC) [4]: 0.05
Structure (SMILES): CC(C)[C@H](NC(=O)c1cc(-c2cnn3cc(-c4ccc(OCCN5CCCCC5)cc4)cnc23)cs1)C(F)(F)F

inhibition [5]: 0%
fold change (FC) [6]: 0
Structure (SMILES): O=C(N[C@@H](C1CC1)C(F)(F)F)c1cc(-c2cnn3cc(-c4ccc(F)cc4)cnc23)cs1
